Experimental data taken from PubChem BioAssay AID1259407 (Chemical Carcinogenesis Research Information System (CCRIS), 2018).
Active and inactive are the calls of the source. No rule for the calls is given here.

Tested on: CCRIS mutagenicity, Ames/micronucleus/aberration tests
Assay: CCRIS mutagenicity studies
[1] = Test System: AMES SALMONELLA TYPHIMURIUM, Strain/Indicator: TA98, Metabolic Activation: NONE, Method: STANDARD PLATE
[2] = Test System: AMES SALMONELLA TYPHIMURIUM, Strain/Indicator: TA98, Metabolic Activation: RAT, LIVER, S-9, AROCLOR 1254, Method: STANDARD PLATE

`Clc1cccc2ccccc12` was tested, and the mutagenic call (Test System: AMES SALMONELLA TYPHIMURIUM, Strain/Indicator: TA97, Metabolic Activation: HAMSTER, LIVER, S-9, AROCLOR 1254 (10%), Method: PREINCUBATION) was “inactive; negative”, the mutagenic call (Test System: AMES SALMONELLA TYPHIMURIUM, Strain/Indicator: TA97, Metabolic Activation: HAMSTER, LIVER, S-9, AROCLOR 1254 (30%), Method: PREINCUBATION) was “active; positive” and the mutagenic call (Test System: AMES SALMONELLA TYPHIMURIUM, Strain/Indicator: TA97, Metabolic Activation: NONE, Method: PREINCUBATION) was “inactive; negative”. For the same compound, the mutagenic call (Test System: AMES SALMONELLA TYPHIMURIUM, Strain/Indicator: TA97, Metabolic Activation: RAT, LIVER, S-9, AROCLOR 1254 (30%), Method: PREINCUBATION) was “inactive; negative”, the mutagenic call (Test System: AMES SALMONELLA TYPHIMURIUM, Strain/Indicator: TA98, Metabolic Activation: HAMSTER, LIVER, S-9, AROCLOR 1254 (30%), Method: PREINCUBATION) was “inactive; negative” and the mutagenic call (Test System: AMES SALMONELLA TYPHIMURIUM, Strain/Indicator: TA98, Metabolic Activation: NONE, Method: PREINCUBATION) was “inactive; negative”. The mutagenic call [1] was “inactive; negative”, the mutagenic call (Test System: AMES SALMONELLA TYPHIMURIUM, Strain/Indicator: TA98, Metabolic Activation: RAT, LIVER, S-9, AROCLOR 1254 (30%), Method: PREINCUBATION) was “inactive; negative” and the mutagenic call [2] was “inactive; negative”. The mutagenic call (Test System: AMES SALMONELLA TYPHIMURIUM, Strain/Indicator: TA100, Metabolic Activation: HAMSTER, LIVER, S-9, AROCLOR 1254 (10%), Method: PREINCUBATION) was “inactive; negative”, the mutagenic call (Test System: AMES SALMONELLA TYPHIMURIUM, Strain/Indicator: TA100, Metabolic Activation: HAMSTER, LIVER, S-9, AROCLOR 1254 (30%), Method: PREINCUBATION) was “active; positive” and the mutagenic call (Test System: AMES SALMONELLA TYPHIMURIUM, Strain/Indicator: TA100, Metabolic Activation: NONE, Method: PREINCUBATION) was “inactive; negative”. The mutagenic call (Test System: AMES SALMONELLA TYPHIMURIUM, Strain/Indicator: TA100, Metabolic Activation: NONE, Method: STANDARD PLATE) was “inactive; negative”, the mutagenic call (Test System: AMES SALMONELLA TYPHIMURIUM, Strain/Indicator: TA100, Metabolic Activation: RAT, LIVER, S-9, AROCLOR 1254 (10 OR 30%), Method: PREINCUBATION) was “inactive; negative” and the mutagenic call (Test System: AMES SALMONELLA TYPHIMURIUM, Strain/Indicator: TA100, Metabolic Activation: RAT, LIVER, S-9, AROCLOR 1254, Method: STANDARD PLATE) was “inactive; negative”. The mutagenic call (Test System: AMES SALMONELLA TYPHIMURIUM, Strain/Indicator: TA1535, Metabolic Activation: HAMSTER, LIVER, S-9, AROCLOR 1254 (10 OR 30%), Method: PREINCUBATION) was “inactive; negative”, the mutagenic call (Test System: AMES SALMONELLA TYPHIMURIUM, Strain/Indicator: TA1535, Metabolic Activation: NONE, Method: PREINCUBATION) was “inactive; negative” and the mutagenic call (Test System: AMES SALMONELLA TYPHIMURIUM, Strain/Indicator: TA1535, Metabolic Activation: RAT, LIVER, S-9, AROCLOR 1254 (30%), Method: PREINCUBATION) was “inactive; negative”.
In the case of `Nc1cccc2c(N)cccc12`, the mutagenic call [1] is reported as “inactive; negative”, the mutagenic call (Test System: AMES SALMONELLA TYPHIMURIUM, Strain/Indicator: TA98, Metabolic Activation: RAT, LIVER, S-9, Method: STANDARD PLATE) is reported as “inactive; negative” and the mutagenic call (Test System: AMES SALMONELLA TYPHIMURIUM, Strain/Indicator: TA1535, Metabolic Activation: HAMSTER, LIVER, S-9, AROCLOR 1254, Method: STANDARD PLATE) is reported as “inactive; negative”. For the same compound, the mutagenic call (Test System: AMES SALMONELLA TYPHIMURIUM, Strain/Indicator: TA1535, Metabolic Activation: HAMSTER, LIVER, S-9, Method: STANDARD PLATE) was “inactive; negative”, the mutagenic call (Test System: AMES SALMONELLA TYPHIMURIUM, Strain/Indicator: TA1535, Metabolic Activation: MOUSE, LIVER, S-9, AROCLOR 1254, Method: STANDARD PLATE) was “inactive; negative” and the mutagenic call (Test System: AMES SALMONELLA TYPHIMURIUM, Strain/Indicator: TA1535, Metabolic Activation: MOUSE, LIVER, S-9, Method: STANDARD PLATE) was “inactive; negative”. The mutagenic call (Test System: AMES SALMONELLA TYPHIMURIUM, Strain/Indicator: TA1535, Metabolic Activation: NONE, Method: STANDARD PLATE) was “inactive; negative”, the mutagenic call (Test System: AMES SALMONELLA TYPHIMURIUM, Strain/Indicator: TA1535, Metabolic Activation: RAT, LIVER, S-9, AROCLOR 1254, Method: STANDARD PLATE) was “inactive; negative” and the mutagenic call (Test System: AMES SALMONELLA TYPHIMURIUM, Strain/Indicator: TA1535, Metabolic Activation: RAT, LIVER, S-9, Method: STANDARD PLATE) was “inactive; negative”. For the same compound, the mutagenic call (Test System: AMES SALMONELLA TYPHIMURIUM, Strain/Indicator: TA1537, Metabolic Activation: HAMSTER, LIVER, S-9, AROCLOR 1254, Method: STANDARD PLATE) was “active; positive”, the mutagenic call (Test System: AMES SALMONELLA TYPHIMURIUM, Strain/Indicator: TA1537, Metabolic Activation: MOUSE, LIVER, S-9, Method: STANDARD PLATE) was “inactive; negative” and the mutagenic call (Test System: AMES SALMONELLA TYPHIMURIUM, Strain/Indicator: TA1537, Metabolic Activation: RAT, LIVER, S-9, Method: STANDARD PLATE) was “inactive; negative”. For the same compound, the mutagenic call (Test System: AMES SALMONELLA TYPHIMURIUM, Strain/Indicator: TA1538, Metabolic Activation: MOUSE, LIVER, S-9, AROCLOR 1254, Method: STANDARD PLATE) was “inactive; negative”, the mutagenic call (Test System: AMES SALMONELLA TYPHIMURIUM, Strain/Indicator: TA1538, Metabolic Activation: MOUSE, LIVER, S-9, Method: STANDARD PLATE) was “inactive; negative” and the mutagenic call (Test System: AMES SALMONELLA TYPHIMURIUM, Strain/Indicator: TA1538, Metabolic Activation: NONE, Method: STANDARD PLATE) was “inactive; negative”. The mutagenic call (Test System: AMES SALMONELLA TYPHIMURIUM, Strain/Indicator: TA1538, Metabolic Activation: RAT, LIVER, S-9, Method: STANDARD PLATE) was “inactive; negative”, the mutagenic call (Test System: E. COLI, Strain/Indicator: WP2 UVRA, Metabolic Activation: HAMSTER, LIVER, S-9, AROCLOR 1254, Method: STANDARD PLATE) was “inactive; negative” and the mutagenic call (Test System: E. COLI, Strain/Indicator: WP2 UVRA, Metabolic Activation: HAMSTER, LIVER, S-9, Method: STANDARD PLATE) was “inactive; negative”. For the same compound, the mutagenic call (Test System: E. COLI, Strain/Indicator: WP2 UVRA, Metabolic Activation: MOUSE, LIVER, S-9, AROCLOR 1254, Method: STANDARD PLATE) was “inactive; negative”, the mutagenic call (Test System: E. COLI, Strain/Indicator: WP2 UVRA, Metabolic Activation: MOUSE, LIVER, S-9, Method: STANDARD PLATE) was “inactive; negative” and the mutagenic call (Test System: E. COLI, Strain/Indicator: WP2 UVRA, Metabolic Activation: NONE, Method: STANDARD PLATE) was “inactive; negative”. The mutagenic call (Test System: E. COLI, Strain/Indicator: WP2 UVRA, Metabolic Activation: RAT, LIVER, S-9, AROCLOR 1254, Method: STANDARD PLATE) was “inactive; negative” and the mutagenic call (Test System: E. COLI, Strain/Indicator: WP2 UVRA, Metabolic Activation: RAT, LIVER, S-9, Method: STANDARD PLATE) was “inactive; negative”.
In the case of `Nc1nc2ccc(Cl)cc2[nH]1`, the mutagenic call (Test System: AMES SALMONELLA TYPHIMURIUM, Strain/Indicator: TA98, Metabolic Activation: RAT, LIVER, S-9, AROCLOR 1254, Method: PREINCUBATION) is reported as “inactive; negative” and the mutagenic call (Test System: AMES SALMONELLA TYPHIMURIUM, Strain/Indicator: TA100, Metabolic Activation: RAT, LIVER, S-9, AROCLOR 1254, Method: PREINCUBATION) is reported as “inactive; negative”.
`Cc1c2ccncc2c(C)c2c1[nH]c1ccccc12` was tested, and the mutagenic call [2] was “active; positive”, the mutagenic call (Test System: AMES SALMONELLA TYPHIMURIUM, Strain/Indicator: TA102, Metabolic Activation: NONE, Method: STANDARD PLATE) was “active; positive” and the mutagenic call (Test System: CHINESE HAMSTER V-79, Strain/Indicator: V-79 (HPRT)/6-THIOGUANINE, Metabolic Activation: NONE) was “inactive; negative”. For the same compound, the mutagenic call (Test System: E. COLI, Strain/Indicator: WP2 TM9, Metabolic Activation: NONE, Method: STANDARD PLATE) was “inactive; negative”, the mutagenic call (Test System: MOUSE LYMPHOMA, Strain/Indicator: L5178Y (HPRT)/6-THIOGUANINE, Metabolic Activation: NONE, Method: FLUCTUATION TEST) was “inactive; negative” and the mutagenic call (Test System: MOUSE LYMPHOMA, Strain/Indicator: L5178Y (TK+/TK-), Metabolic Activation: NONE, Method: FLUCTUATION TEST) was “active; positive”. The mutagenic call (Test System: MOUSE LYMPHOMA, Strain/Indicator: L5178Y (TK+/TK-), Metabolic Activation: NONE, Method: SUSPENSION/PLATE) was “active; positive”, the mutagenic call (Test System: Mouse lymphoma, Strain/Indicator: L5178Y (tk+/tk-), Metabolic Activation: None, Method: Suspension/plate) was “active; positive” and the mutagenic call (Test System: Mouse lymphoma, Strain/Indicator: L5178Y (tk+/tk-), Metabolic Activation: Rat, Liver, S-9, Aroclor 1254, Method: Suspension/plate) was “active; positive”.
